In series [1] the test system is Staphylococcus aureus. The experiment in a line: Antibacterial activity against Staphylococcus aureus assessed as zone of inhibition at 75 ug/ml incubated for 18-24 hrs at 37 degC by disc diffusion method. It counts as functional. The settings on record: read-out: IZ.
Series [2] in a line: Selectivity index, ratio of IC50 for African green monkey Vero cells to MIC for Mycobacterium tuberculosis H37Rv. The settings on record: read-out: Selectivity Index. It counts as toxicity, cell-based.
Series [3] relates to Mycobacterium tuberculosis. Description: Antitubercular activity against Mycobacterium tuberculosis H37Rv assessed as inhibition of cell growth after 5 days by microplate alamar blue assay. The following applies: 120 h. It counts as functional. A general note: Resazurin is reduced to fluorescent resorufin, in cell work by metabolically active cells.
Series [4] is described as follows: Cytotoxicity against African green monkey Vero cells assessed as growth inhibition at 62.5 ug/ml after 3 days by MTT assay. The settings on record: chlorocebus sabaeus, read-out: GI. It counts as cell-based. (Tetrazolium assays rely on reduction of a dye to a coloured formazan, in cell work by metabolically active cells.)
The subject of series [5] is Pseudomonas aeruginosa. The experiment in a line: Antibacterial activity against Pseudomonas aeruginosa assessed as zone of inhibition at 75 ug/ml incubated for 18-24 hrs at 37 degC by disc diffusion method. The following applies: for zone of inhibition at 75 µg/mL: read-out: IZ. The format is functional. On the technique in general: In agar diffusion tests the substance spreads into inoculated agar from a disc or well.

Series [6] concerns Escherichia coli. The experiment in a line: Antibacterial activity against Escherichia coli assessed as zone of inhibition at 50 ug/ml incubated for 18-24 hrs at 37 degC by disc diffusion method. It counts as functional. The following applies: for zone of inhibition at 50 µg/mL: read-out: IZ.
In series [7] the test system is Pseudomonas aeruginosa. The experiment in a line: Antibacterial activity against Pseudomonas aeruginosa assessed as zone of inhibition at 50 ug/ml incubated for 18-24 hrs at 37 degC by disc diffusion method. The following applies: for zone of inhibition at 50 µg/mL: read-out: IZ. It counts as functional.
The subject of series [8] is Vero. Description: Cytotoxicity against African green monkey Vero cells assessed as growth inhibition after 3 days by MTT assay. It counts as cell-based. The settings on record: Chlorocebus sabaeus, 72 h.
The subject of series [9] is Escherichia coli. Description: Antibacterial activity against Escherichia coli assessed as zone of inhibition at 75 ug/ml incubated for 18-24 hrs at 37 degC by disc diffusion method. The format is functional. The following applies: for zone of inhibition at 75 µg/mL: read-out: IZ.
Series [10] concerns Staphylococcus aureus. Description: Antibacterial activity against Staphylococcus aureus assessed as zone of inhibition at 50 ug/ml incubated for 18-24 hrs at 37 degC by disc diffusion method. The format is functional. The settings on record: read-out: IZ.

Structures are written as SMILES. Values after ≈ are worked out from the molar mass of the structure shown. Active and inactive are the calls of the source. The rule behind the calls is not given here.

As usually defined, the MIC is the lowest concentration found to suppress growth. The IC50 is the midpoint of a concentration-inhibition curve. As for `O=C(c1ccncc1)N(/N=C/c1c[nH]nc1-c1cccc(Cl)c1)C(=O)c1ccc(F)cc1`, the zone of inhibition at 75 µg/mL in series [1] amounted to 16 mm; in series [5], 17 mm; in series [9], 14 mm. Further, the selectivity ratio in series [2] is more than 625. Moreover, the MIC in series [3] came out at 3.6 µM (≈ 1.61 µg/mL). The inhibition at 72 h, 62.5 ug/ml in [4] stood at 17.8%. Moreover, the figures for the zone of inhibition at 50 µg/mL in series [6], in series [7] and in series [10] were 12 mm, 13 mm and 13 mm, respectively. The IC50 in series [8] was more than 1000 µg/mL.
On to `O=C(c1ccncc1)N(/N=C/c1c[nH]nc1-c1cccc(Cl)c1)C(=O)c1ccccc1Cl`, for which the results for the zone of inhibition at 75 µg/mL in series [1], in series [5] and in series [9] were 15 mm, 16 mm and 18 mm, respectively. In series [2], the selectivity ratio stood at 642. Also, the MIC in series [3] came out at 1.7 µM (≈ 0.789 µg/mL). Besides, the inhibition at 72 h, 62.5 ug/ml in series [4] was 14.9%. The results for the zone of inhibition at 50 µg/mL in series [6], in series [7] and in series [10] were 14 mm, 12 mm and 13 mm, respectively. In [8], the IC50 stood at 513 µg/mL (≈ 1110 µM).
As to `O=C(c1ccncc1)N(/N=C/c1c[nH]nc1-c1cccc(Cl)c1)C(=O)c1ccc(Cl)cc1`, the zone of inhibition at 75 µg/mL in [1] amounted to 23 mm; in series [5], 21 mm; in series [9], 25 mm. The selectivity ratio in series [2] is more than 625. In addition, the MIC in [3] was determined as 3.4 µM (≈ 1.58 µg/mL). Moreover, the inhibition at 72 h, 62.5 ug/ml in [4] stood at 10.5%. In addition, the zone of inhibition at 50 µg/mL in [6] was found to be 21 mm; in series [7], 19 mm; in series [10], 18 mm. Also, the IC50 in [8] was more than 1000 µg/mL.
For `O=C(N/N=C/c1c[nH]nc1-c1cccc(Cl)c1)c1ccncc1`, the zone of inhibition at 75 µg/mL in [1] turned out to be 23 mm; in series [5], 19 mm; in [9] it was 24 mm. For the same compound, in [2], the selectivity ratio was more than 625. In series [3], the MIC was found to be 4.9 µM (≈ 1.6 µg/mL). In series [4], the inhibition at 72 h, 62.5 ug/ml is 26.3%. In addition, the zone of inhibition at 50 µg/mL in [6] came out at 20 mm; in [7], 15 mm; in [10], 18 mm. Moreover, the IC50 in [8] is more than 1000 µg/mL.
In the case of `COc1ccc(C(=O)N(/N=C/c2c[nH]nc2-c2ccc(Cl)cc2)C(=O)c2ccncc2)cc1`, the zone of inhibition at 75 µg/mL in series [1] stood at 12 mm; in [5], 13 mm; in [9], 9 mm. Besides, the MIC in series [3] worked out at 109 µM (≈ 50 µg/mL). Further, the zone of inhibition at 50 µg/mL in series [6] is 7 mm; in series [7] it was 10 mm; in series [10], 10 mm.
In the case of `O=C(c1ccccc1)N(/N=C/c1c[nH]nc1-c1cccc(Cl)c1)C(=O)c1ccncc1`, the zone of inhibition at 75 µg/mL in [1] was found to be 13 mm. In addition, the MIC in series [3] turned out to be 116 µM (≈ 50 µg/mL). For the same compound, the “inhibition zone (IZ)” value in series [5], in [6], in [7] and in [9] was “inactive” throughout. Moreover, in series [10], the zone of inhibition at 50 µg/mL was 11 mm.
With `O=C(c1ccncc1)N(/N=C/c1c[nH]nc1-c1ccc(Cl)cc1)C(=O)c1ccc(CCl)cc1`, the zone of inhibition at 75 µg/mL worked out at 16 mm in series [1], 20 mm in series [5] and 19 mm in [9]. Besides, the selectivity ratio in [2] is more than 160. Also, the MIC in series [3] was found to be 13.1 µM (≈ 6.27 µg/mL). Besides, the inhibition at 72 h, 62.5 ug/ml in series [4] is 12%. In addition, the zone of inhibition at 50 µg/mL in series [6] was 15 mm; in [7], 18 mm; in [10], 13 mm. The IC50 in [8] was more than 1000 µg/mL.
Regarding `COc1ccc(C(=O)N(/N=C/c2c[nH]nc2-c2cccc(Cl)c2)C(=O)c2ccncc2)cc1`, the zone of inhibition at 75 µg/mL came out at 10 mm in [1], 14 mm in [5] and 11 mm in [9]. Besides, the MIC in [3] amounted to 109 µM (≈ 50 µg/mL). Besides, the zone of inhibition at 50 µg/mL stood at 9 mm in [6], 11 mm in [7] and 7 mm in series [10].
For the compound `O=C(N/N=C/c1c[nH]nc1-c1ccc(Cl)cc1)c1ccncc1`, the zone of inhibition at 75 µg/mL in [1] stood at 19 mm; in series [5] it was 18 mm; in series [9], 16 mm. In series [3], the MIC was found to be 38.4 µM (≈ 12.5 µg/mL). Moreover, the results for the zone of inhibition at 50 µg/mL in [6], in series [7] and in series [10] were 14 mm, 14 mm and 16 mm, respectively.
In the case of `O=C(c1ccncc1)N(/N=C/c1c[nH]nc1-c1ccc(Cl)cc1)C(=O)c1ccc(F)cc1`, the zone of inhibition at 75 µg/mL in series [1] was 17 mm; in series [5] it was 17 mm; in [9], 19 mm. Further, the MIC in series [3] came to 112 µM (≈ 50 µg/mL). The zone of inhibition at 50 µg/mL in series [6] was determined as 17 mm; in [7], 14 mm; in series [10] it was 14 mm.
As to `O=C(c1ccncc1)N(/N=C/c1c[nH]nc1-c1cccc(Cl)c1)C(=O)c1ccc([N+](=O)[O-])cc1`, the values for the zone of inhibition at 75 µg/mL in [1], in [5] and in [9] were 17 mm, 14 mm and 15 mm, respectively. In addition, in [3], the MIC came out at 26.3 µM (≈ 12.5 µg/mL). In addition, the results for the zone of inhibition at 50 µg/mL in [6], in series [7] and in [10] were 13 mm, 11 mm and 14 mm, respectively.
On to `O=C(c1ccncc1)N(/N=C/c1c[nH]nc1-c1ccc(Cl)cc1)C(=O)c1ccc(Cl)cc1`, for which the figures for the zone of inhibition at 75 µg/mL in series [1], in series [5] and in series [9] were 24 mm, 21 mm and 24 mm, respectively. Besides, in series [3], the MIC turned out to be 53.8 µM (≈ 25 µg/mL). Also, the zone of inhibition at 50 µg/mL was 19 mm in series [6], 18 mm in series [7] and 21 mm in [10].

Source of the values: ChEMBL document CHEMBL3734717, “New INH-pyrazole analogs: Design, synthesis and evaluation of antitubercular and antibacterial activity” (Bioorg Med Chem Lett, 2015).
